Measurements reported in publication PMC7664216, “An Odorant Binding Protein (SaveOBP9) Involved in Chemoreception of the Wheat Aphid Sitobion avenae” (International Journal of Molecular Sciences, 2020).
“Also recorded” adds a separate entry of the source. Where two headings read alike, the source gives them in different places.

Experiments:
SaveOBP9 = SaveOBP9 (Sitobion avenae, UniProt A0A1I9ZLB6); test: Fluorescence competitive ligand binding assay with probe 1-NPN; details: 1-NPN probe
Protocol: Methanol (spectrophotometric-grade) was used to prepare the standard solution of each tested ligand (Sigma Aldrich, St. Louis, MO, USA). The binding ability of 1-NPN was measured by adding 1-NPN (1 mM) into protein solution (2 μM L^−1) diluted with Tris-HCl (30 mM), and the final concentration was made to 0 to 20 μM L^−1 at room temperature.
The ligand’s binding with SaveOBP9 was conducted with three independent replicates.

AlinOBP1 = test system: AlinOBP1; design: method as in PMID 21541988; details: cited from earlier work
Sitobion avenae = test: Y-tube olfactometer behavioral bioassay; format: in vivo; details: for Behavioral response of S. avenae: wingless adults, odor 0.10% (v/v) vs liquid paraffin control, pre-RNAi; for Post-RNAi behavioral response of S. avenae: after 3 days of dsSaveOBP9 feeding (50 ng/µL), compared to dsGFP and Control
From the text: Behavioral responses of Sitobion avenae were examined by using a glass Y-tube olfactometer (base = 2.0 cm diameter by 14 cm length, arms = 2.0 cm diameter by 13 cm length) using 7 different volatile compounds (Sigma-Aldrich, St. Louis, MO, USA). Air was passed through the activated charcoal for filtration at the continuous rate of 0.5 L/min and humidified using deionized water followed by the splitting of air between two arms of the olfactometer. One arm contained liquid paraffin (control) and the other had the test ligand. In addition, both chambers were connected to the central arm of the Y-tube. An aliquot of odors and liquid paraffin were loaded on with the concentration of 0.10% (v/v). Aphids were then placed in the trunk. Each insect was allowed 15 min to respond to the treatment, and the numbers of aphids showing attraction, repulsion, or no response were counted. Three replications (20 wingless aphids in each replication) for each group were applied.
Y-tube bioassays were carried out before and after dietary RNAi application to confirm the SaveOBP9 gene-silencing outcome. Two treatments containing liquid paraffin and seven compounds (Ki < 10 μM), 2-ethyl1-hexanol, decanal, tetradecane, hexadecane, octanal, α-farnesene, and hexanal, were used. Three treatments containing Control, dsGFP feeding and dsRNA feeding were tested in behavioral trials after 3 days of feeding. For the post-RNAi bioassays, individuals were tested using the compounds: Tetradecane, octanal, decanal, and hexadecane. These four ligands were carefully chosen based on the observation of significant responses of S.avenae to these compounds in bioassays performed prior to the application of dietary RNAi.

SaveOBP2 = test system: SaveOBP2; design: method as in PMID 22306433; details: cited from earlier work
Aphis fabae = test system: Aphis fabae; design: method as in PMID 18584254; details: Black bean aphid Aphis fabae; cited from earlier work
SaveOBP3 = test system: SaveOBP3; design: method as in PMID 22306433; details: cited from earlier work
SaveOBP7 = test system: SaveOBP7; design: method as in PMID 22306433; details: cited from earlier work

SaveOBP9, sequence (A0A1I9ZLB6 entry or part of it): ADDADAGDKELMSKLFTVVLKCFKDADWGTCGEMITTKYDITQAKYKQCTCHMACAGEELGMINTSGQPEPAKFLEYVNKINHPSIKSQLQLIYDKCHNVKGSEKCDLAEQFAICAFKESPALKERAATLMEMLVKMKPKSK

IC50 (SaveOBP9; pH 5.0, read-out: IC50) | Ki (SaveOBP9; pH 5.0, read-out: Ki) | IC50 (SaveOBP9; pH 7.4, read-out: IC50) | Ki (SaveOBP9; pH 7.4, read-out: Ki) | Molecule | IC50 (SaveOBP9; IC50, pH 5.0) | IC50 (SaveOBP9; IC50, pH 7.4) | Ki (SaveOBP9; Ki, pH 5.0) | Ki (SaveOBP9; Ki, pH 7.4) | further results
17.4 µM | 15.7 µM | 48.2 µM | 42.8 µM | CC12CCC(CC1=O)C2(C)C (racemic) [(±)-Camphor] | – | – | – | – | –
39.9 µM | 36.1 µM | 14.7 µM | 13 µM | CC1=CCC2C(C1)C2(C)C (single isomer, unassigned; (+)) [(+)-3-Carene] | – | – | – | – | –
34.2 µM | 30.9 µM | 24.2 µM | 21.5 µM | C=CC(O)CCCCC (centres unmarked) [1-Octen-3-ol] | – | – | – | – | –
43.8 µM | 39.6 µM | 11.2 µM | 9.93 µM | CCCCC(CC)CO (centres unmarked) [2-Ethyl-1-hexanol] | – | – | – | – | Binding affinity (AlinOBP1): high binding affinity; Behavioral response of S. avenae (Sitobion avenae): did not show stimuli
– | – | – | – | C=CCCN=C=S [3-Butenyl isothiocyanate] | 26.3 µM | 52.7 µM | 23.8 µM | 46.8 µM | –
30.8 µM | 27.8 µM | 13 µM | 11.5 µM | CC(=O)c1ccccc1 [Acetophenone] | – | – | – | – | –
– | – | – | – | O=Cc1ccccc1 [Benzaldehyde] | 41 µM | 109 µM | 37 µM | 96.5 µM | –
8.8 µM | 7.95 µM | 45.6 µM | 40.5 µM | Cc1cc(C(C)(C)C)c(O)c(C(C)(C)C)c1 [Butylated Hydroxytoluene] | – | – | – | – | –
19.8 µM | 17.9 µM | 9.95 µM | 8.84 µM | CCCCCCCCCC=O [Decanal] | – | – | – | – | Binding ability (SaveOBP2): None of the three SaveOBPs have the ability to bind; EAG response (Aphis fabae): significant electroantennography (EAG) response; Post-RNAi behavioral response of S. avenae (Sitobion avenae): non-significant preference; Behavioral response of S. avenae (Sitobion avenae): significantly showed attractive responses; also recorded: strongly attracted S. avenae; Binding ability (SaveOBP3): None of the three SaveOBPs have the ability to bind; Binding ability (SaveOBP7): None of the three SaveOBPs have the ability to bind
14.6 µM | 13.2 µM | 10.9 µM | 9.68 µM | CCCCCCCCCCCCCCCC [Hexadecane] | – | – | – | – | Binding ability (SaveOBP2): None of the three SaveOBPs have the ability to bind; Post-RNAi behavioral response of S. avenae (Sitobion avenae): non-significant preference; Behavioral response of S. avenae (Sitobion avenae): significantly showed attractive responses; also recorded: strongly attracted S. avenae; Binding ability (SaveOBP3): None of the three SaveOBPs have the ability to bind; Binding ability (SaveOBP7): None of the three SaveOBPs have the ability to bind
– | – | – | – | CCCCCC=O [Hexanal] | 16.8 µM | 8.23 µM | 15.2 µM | 7.31 µM | Behavioral response of S. avenae (Sitobion avenae): did not show stimuli
– | – | – | – | C=CC(C)(O)CCC=C(C)C (centres unmarked) [Linalool] | 11.8 µM | 24.1 µM | 10.7 µM | 21.4 µM | –
– | – | – | – | COC(=O)c1ccccc1O [Methyl salicylate] | 24.2 µM | 13.4 µM | 21.9 µM | 11.9 µM | –
– | – | – | – | c1ccc2ccccc2c1 [Naphthalene] | 30.3 µM | 13 µM | 27.4 µM | 11.5 µM | –
12.3 µM | 11.1 µM | 39.8 µM | 35.4 µM | CCCCCCCCC=O [Nonanal] | – | – | – | – | –
20.3 µM | 18.3 µM | 8.79 µM | 7.8 µM | CCCCCCCC=O [Octanal] | – | – | – | – | Binding ability (SaveOBP2): relatively moderate binding ability; EAG response (Aphis fabae): significant electroantennography (EAG) response; Post-RNAi behavioral response of S. avenae (Sitobion avenae): non-significant preference; Behavioral response of S. avenae (Sitobion avenae): significantly showed attractive responses; also recorded: strongly attracted S. avenae; Binding ability (SaveOBP3): relatively moderate binding ability; Binding ability (SaveOBP7): no binding ability
15.1 µM | 13.7 µM | 12.8 µM | 11.4 µM | CCCCCCCCCCCCCCC [Pentadecane] | – | – | – | – | –
11.9 µM | 10.7 µM | 7.96 µM | 7.07 µM | CCCCCCCCCCCCCC [Tetradecane] | – | – | – | – | Post-RNAi behavioral response of S. avenae (Sitobion avenae): non-significant preference; Behavioral response of S. avenae (Sitobion avenae): significantly showed attractive responses; also recorded: strongly attracted S. avenae
– | – | – | – | CC/C=C\CCO [cis-3-Hexen-1-ol] | 36.9 µM | 13.2 µM | 33.3 µM | 11.8 µM | –
– | – | 29.7 µM | 26.4 µM | CC/C=C\CCOC(C)=O [cis-3-Hexenyl acetate] | – | – | – | – | –
– | – | – | – | CCC/C=C/C=O [trans-2-Hexen-1-al] | 21.6 µM | 41.9 µM | 19.5 µM | 37.2 µM | –
– | – | – | – | CCC/C=C/CO [trans-2-Hexen-1-ol] | 21.7 µM | 14.5 µM | 19.6 µM | 12.9 µM | –
– | – | – | – | C=CC(=C)CC/C=C(\C)CCC=C(C)C [trans-β-farnesene] | – | – | – | – | Binding ability (SaveOBP3): could bind; Binding ability (SaveOBP7): could bind
9.51 µM | 8.59 µM | 10.3 µM | 9.11 µM | C=C/C(C)=C/C/C=C(\C)CCC=C(C)C [α-Farnesene] | – | – | – | – | Behavioral response of S. avenae (Sitobion avenae): did not show stimuli
– | – | – | – | CC1=CCC2CC1C2(C)C (stereo not drawn) [α-Pinene] | 27.2 µM | 38 µM | 24.6 µM | 33.7 µM | –
– | – | – | – | CC1=CC[C@@H](C(C)(C)O)CC1 [α-Terpineol] | 37.4 µM | 26.2 µM | 33.8 µM | 23.3 µM | –
– | – | – | – | C=C1CCC2CC1C2(C)C (stereo not drawn) [β -Pinene] | 27.7 µM | 37.4 µM | 25.1 µM | 33.2 µM | –
– | – | – | – | C=C1CC/C=C(\C)CC[C@@H]2[C@@H]1CC2(C)C [β-Caryophyllene] | 622 µM | 52.4 µM | 562 µM | 46.6 µM | –
10.7 µM | 9.67 µM | 12.2 µM | 10.8 µM | C=CC(=C)CCC=C(C)C [β-Myrcene] | – | – | – | – | –

Molecule | IC50 (SaveOBP9; pH 5.0, read-out: IC50) | Ki (SaveOBP9; pH 5.0, read-out: Ki) | IC50 (SaveOBP9; pH 7.4, read-out: IC50) | Ki (SaveOBP9; pH 7.4, read-out: Ki) | IC50 (SaveOBP9; IC50, pH 5.0) | IC50 (SaveOBP9; IC50, pH 7.4) | Ki (SaveOBP9; Ki, pH 5.0) | Ki (SaveOBP9; Ki, pH 7.4) | further results
C=C(C)[C@@H]1CC=C(C)CC1 [S-(−)-Limonene] | 11.5 µM | 10.4 µM | 32.1 µM | 28.5 µM | – | – | – | – | –
(+)-Limonene oxide | 37.5 µM | 33.9 µM | 24.3 µM | 21.6 µM | – | – | – | – | –
